System: Normal human articular chondrocytes (NHAC's)
Experiment: Aggrecan induction, Alcian blue stain assay
Type: cell-based
Details: primary human chondrocytes 12 days post infection, FIG. 5
Protocol: A second assay to screen for chondrocyte anabolic factors is developed by monitoring the levels of aggrecan, another major constituent of cartilage. In this assay, glycosaminoglycans on aggrecan are stained by Alcian blue. NHACs are seeded in 384 well plates and 1 day after plating infected with individual Ad-siRNA from the SilenceSelect™ collection. […] Using Ad-BMP2 as a positive control, we confirm in a series of experiments that several parameters optimized for the ColII cELISA assay are also applicable for the Alcian blue stain assay for aggrecan. These parameters include cell seeding density, MOIs of control viruses, duration of infection, and the day of readout.
NHAC's are seeded on day 0 at 1500 cells/well of a 384 well black-plate with clear bottom in 60 μl of DMEM/F12, containing 10% FBS-HI and Pen/Strep and infected the next day with 2.5 μl of Ad-BMP2 or Ad-eGFP; at an MOI of 2000. After 7 days, 10 μl of a 50 μg/ml 2-Phospho-L-ascorbic acid in assay culture medium is added to each well. […] After replacing 50% ethanol/3% acetic acid with 70% ethanol/3% acetic acid, each individual well is photographed with a SONY CCD camera, images are analyzed using a Galapagos Alcian blue quantification algorithm based on the separation of the blue signal through a color threshold procedure after a noise reduction filter. […]

## GGTGTATGGGCTCATGTAC (adenoviral siRNA, target sequence only, chemistry not fully specified) [Ad-siRNA targeting FZD1]
  aggrecan levels (Alcian blue staining): does not seem to induce Alcian blue staining
